The record followed here is PubChem BioAssay (NCI).

Test systems include MDA-MB-435; DU-145 prostate; SNB-75 CNS; A549 NSCLC; SNB-19 CNS; COLO 205 colon; HCC-2998 colon; CAKI-1 renal; SW-620 colon; UACC-62 melanoma.
Holding throughout (experiment): NCI-60 cell line screen, 48 h

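Compound exposure: 48 hours, 5 concentrations, 96-well plates. GI50 = concentration required for 50% inhibition of growth. TGI marks complete inhibition of growth.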

Take `Nc1c(Br)cc(Br)c2c1[nH]c(=O)c1ccccc12`: the GI50 is 19500 nM in the assay with MDA-MB-435; 23.6 µM with DU-145 prostate; 1360 nM in the assay with SNB-75 CNS; 6.7 µM in the assay on A549 NSCLC; 10.2 µM in the assay with SNB-19 CNS; 22100 nM in the assay with COLO 205 colon. Besides, the GI50 in the assay with HCC-2998 colon is more than 100000 nM; in the assay with CAKI-1 renal, 3.69 µM; with SW-620 colon, 23.1 µM; with UACC-62 melanoma it was 46800 nM. In addition, the TGI with MDA-MB-435 was more than 100 µM; with DU-145 prostate, more than 100 µM; with SNB-75 CNS, 3.77 µM; in the assay with A549 NSCLC it was more than 100 µM; in the assay on SNB-19 CNS it was 57.5 µM; with COLO 205 colon, more than 100 µM. Also, the TGI was more than 100 µM in the assay on HCC-2998 colon, 21.3 µM in the assay with CAKI-1 renal, more than 100 µM in the assay on SW-620 colon and more than 100 µM in the assay with UACC-62 melanoma.

In the case of `CCC(CO)Nc1nc(NCc2ccccc2O)c2ncn(C(C)C)c2n1` (stereo not given), the GI50 was 2640 nM in the assay on MDA-MB-435; 4.46 µM in the assay on DU-145 prostate; 1960 nM with SNB-75 CNS; 4.03 µM with A549 NSCLC; 3.3 µM in the assay on SNB-19 CNS; 1950 nM in the assay with COLO 205 colon. Moreover, the GI50 with HCC-2998 colon is 215 nM; in the assay with CAKI-1 renal it was 15.6 µM; with SW-620 colon, 3.34 µM; in the assay on UACC-62 melanoma, 2300 nM. In addition, the TGI in the assay on MDA-MB-435 was 9.34 µM; with DU-145 prostate, more than 100 µM; in the assay on SNB-75 CNS, 6.82 µM; in the assay on A549 NSCLC it was more than 100 µM; with SNB-19 CNS, 76 µM; in the assay on COLO 205 colon it was 3.89 µM. The TGI in the assay on HCC-2998 colon was 6.98 µM; in the assay with CAKI-1 renal it was 63.4 µM; in the assay on SW-620 colon, more than 100 µM; in the assay with UACC-62 melanoma it was 12.5 µM.

With `CCCc1cc2c(=O)c(C(=O)OC)c[nH]c2cc1N(CC)CC`, the GI50 in the assay with MDA-MB-435 was 47500 nM; in the assay with DU-145 prostate, 20.2 µM; with SNB-75 CNS it was 18600 nM; in the assay with A549 NSCLC it was 38.3 µM; with SNB-19 CNS, 28.6 µM; in the assay with COLO 205 colon, 46500 nM. The GI50 in the assay on HCC-2998 colon was 76300 nM; with CAKI-1 renal it was 11.7 µM; with SW-620 colon it was 45.6 µM; in the assay on UACC-62 melanoma it was more than 100000 nM. The TGI in the assay with MDA-MB-435 was more than 100 µM; with DU-145 prostate, 49.6 µM; with SNB-75 CNS, 46.3 µM; in the assay with A549 NSCLC, more than 100 µM; in the assay with SNB-19 CNS it was 77.8 µM; in the assay with COLO 205 colon, more than 100 µM. Moreover, the TGI was more than 100 µM in the assay on HCC-2998 colon, 29.1 µM with CAKI-1 renal, more than 100 µM in the assay on SW-620 colon and more than 100 µM in the assay on UACC-62 melanoma.

Take `COc1cc(-c2nn(-c3cccc(NC(=O)Nc4cc(C(F)(F)F)cc(C(F)(F)F)c4)c3)cc2-c2ccncc2)ccc1Cl`: the GI50 is 772 nM in the assay with MDA-MB-435; 0.987 µM in the assay on DU-145 prostate; 961 nM with SNB-75 CNS; 0.438 µM with A549 NSCLC; 0.59 µM in the assay on SNB-19 CNS; 817 nM with COLO 205 colon. In addition, the GI50 with HCC-2998 colon was 1090 nM; with CAKI-1 renal it was 0.852 µM; in the assay with SW-620 colon, 0.494 µM; in the assay with UACC-62 melanoma, 496 nM. Also, the TGI with MDA-MB-435 was 1.85 µM; in the assay with DU-145 prostate it was 5.59 µM; with SNB-75 CNS, 2.74 µM; in the assay on A549 NSCLC, 2.8 µM; in the assay on SNB-19 CNS it was 4.25 µM; with COLO 205 colon, 1.6 µM. For the same compound, the TGI with HCC-2998 colon stood at 2.65 µM; with CAKI-1 renal, 2.93 µM; in the assay with SW-620 colon, 2.94 µM; in the assay on UACC-62 melanoma, 1.5 µM.

As for `COc1ccc(/C=C/C(=O)c2ccc(SC)cc2)cc1OC`, the GI50 in the assay with MDA-MB-435 is 3440 nM; with DU-145 prostate, 13.4 µM; in the assay with SNB-75 CNS, 17000 nM; in the assay on A549 NSCLC, 15.8 µM; in the assay with SNB-19 CNS, 21 µM; with COLO 205 colon, 21000 nM. Besides, the GI50 in the assay on HCC-2998 colon is 3270 nM; with CAKI-1 renal, 7.5 µM; with SW-620 colon, 4.44 µM; with UACC-62 melanoma it was 12700 nM. Besides, the TGI with MDA-MB-435 is 13.4 µM; in the assay with DU-145 prostate it was 30.9 µM; in the assay on SNB-75 CNS, 37.2 µM; with A549 NSCLC it was 42.7 µM; with SNB-19 CNS it was 56.9 µM; in the assay on COLO 205 colon, more than 100 µM. Further, the TGI in the assay with HCC-2998 colon is 12.1 µM; in the assay with CAKI-1 renal, 25.6 µM; in the assay on SW-620 colon, more than 100 µM; in the assay on UACC-62 melanoma, 27.1 µM.

As to `C#CCC(Cc1cnc2nc(N)nc(N)c2n1)c1ccc(C(=O)N[C@@H](CCC(=O)O)C(=O)O)cc1` (stereo not given in full), the GI50 in the assay on MDA-MB-435 is less than 10 nM; in the assay on DU-145 prostate, less than 0.01 µM; in the assay with SNB-75 CNS it was less than 50.2 nM; in the assay with A549 NSCLC, less than 0.01 µM; in the assay with SNB-19 CNS, less than 0.0131 µM; in the assay with COLO 205 colon, less than 15.9 nM. For the same compound, the GI50 with HCC-2998 colon was 10.3 nM; with CAKI-1 renal, less than 0.01 µM; in the assay on SW-620 colon, less than 0.01 µM; with UACC-62 melanoma, less than 10 nM. Further, the TGI in the assay with MDA-MB-435, in the assay on DU-145 prostate, with SNB-75 CNS, in the assay on A549 NSCLC, in the assay with SNB-19 CNS and with COLO 205 colon was more than 100 µM each time. The TGI in the assay with HCC-2998 colon, in the assay on CAKI-1 renal, in the assay with SW-620 colon and in the assay on UACC-62 melanoma was more than 100 µM each time.

For the compound `Cn1c(/C=C(\C#N)c2ccccc2)nc2c(N3CCOCC3)nc(Cl)nc21`, the GI50 with MDA-MB-435 is 1300 nM; with DU-145 prostate it was 1.28 µM; in the assay with SNB-75 CNS, 276 nM; with A549 NSCLC it was 1.53 µM; with SNB-19 CNS, 1.6 µM; with COLO 205 colon it was 1340 nM. Moreover, the GI50 with HCC-2998 colon was 1820 nM; in the assay on CAKI-1 renal, 0.824 µM; in the assay with SW-620 colon, 0.413 µM; in the assay on UACC-62 melanoma, 1190 nM. The TGI with MDA-MB-435 was 2.78 µM; with DU-145 prostate it was 2.56 µM; in the assay with SNB-75 CNS, 1.59 µM; in the assay on A549 NSCLC it was 4.03 µM; with SNB-19 CNS, 3.09 µM; in the assay with COLO 205 colon it was 2.93 µM. For the same compound, the TGI was 3.33 µM in the assay with HCC-2998 colon, 2.21 µM in the assay with CAKI-1 renal, 1.51 µM with SW-620 colon and 2.52 µM with UACC-62 melanoma.
